Assay results published in patent US9695155B2, “Herbicidal substituted pyrimidinyloxy benzene compounds” (E. I. DU PONT DE NEMOURS AND COMPANY, priority 2013, dated 2017).

Key:
Italian ryegrass = assay: Test C postemergence; format: in vivo, Lolium multiflorum
From the text: (§1) Seeds of plant species selected from blackgrass (Alopecurus myosuroides), Italian ryegrass (Lolium multiflorum), wheat, winter (winter wheat, Triticum aestivum), galium (catchweed bedstraw, Galium aparine), corn (Zea mays), large (Lg) crabgrass (Digitaria sanguinalis), giant foxtail (Setaria faberii), johnsongrass (Sorghum halepense), lambsquarters (Chenopodium album), morningglory (Ipomoea coccinea), yellow nutsedge (Cyperus esculentus), pigweed (Amaranthus retroflexus), ragweed (common ragweed, Ambrosia elatior), soybean (Glycine max), barnyardgrass (Echinochloa crus-galli), oilseed rape (Brassica napus), waterhemp (common waterhemp, Amaranthus rudis), kochia (Kochia scoparia), wild oat (Avena fatua), surinam grass (Brachiaria decumbens), foxtail, green (green foxtail, Setaria viridis), goosegrass (Eleusine indica), bromegrass, downy (downy bromegrass, Bromus tectorum), nightshade (eastern black nightshade, Solanum ptycanthum), cocklebur (common cocklebur, Xanthium strumarium), cupgrass, woolly (woolly cupgrass, Eriochloa villosa), bermudagrass (Cynodon dactylon), sunflower, (common oilseed sunflower, Helianthus annuus), Russian thistle (Salsola kali), and velvetleaf (Abutilon theophrasti) were planted into a blend of loam soil and sand and treated preemergence with test chemicals formulated in a non-phytotoxic solvent mixture which included a surfactant.
(§2) At the same time, plants selected from these crop and weed species and also barley, winter (winter barley, Hordeum vulgare), windgrass (Apera spica-venti), chickweed (common chickweed, Stellaria media), deadnettle (henbit deadnettle, Lamium amplexicaule), and canarygrass (littleseed canarygrass, Phalaris minor) were planted in pots containing Redi-Earth® planting medium (Scotts Company, 14111 Scottslawn Road, Marysville, Ohio 43041) comprising spaghnum peat moss, vermiculite, wetting agent and starter nutrients and treated with postemergence applications of test chemicals formulated in the same manner. Plants ranged in height from 2 to 18 cm (1- to 4-leaf stage) for postemergence treatments. Treated plants and controls were maintained in a greenhouse for 13 to 15 days, after which time all species were compared to controls and visually evaluated. Plant response ratings, summarized in Table C, are based on a scale of 0 to 100 where 0 is no effect and 100 is complete control. A dash (-) response means no test result.

corn [1] = assay: Test A postemergence; format: in vivo, Zea mays
Method in brief: (§3)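 Pre- and postemergence greenhouse screen. Soil: loam + sand. Spray carrier: solvent mixture, non-phytotoxic, with surfactant. Post timing at 1–2 leaves, height 2–10 cm. Readout: visual injury on a 0–100 scale roughly 10 days after application, untreated plants as reference.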

corn [2] = assay: Test C postemergence; format: in vivo, Zea mays
From the text: as §1, §2

rice = assay: Test B flooded paddy test; format: in vivo, Oryza sativa; conditions: Flood, 250 g ai/ha, 0 to 100 scale where 0 is no effect and 100 is complete control
Method in brief: (§4)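 Plants at 2-leaf stage; pots flooded to 3 cm above soil and compound applied directly into paddy water, depth held throughout. After 13 to 15 days in greenhouse, visual rating versus controls on 0 (no effect) to 100 (complete control) scale.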

waterhemp = assay: Test C postemergence; format: in vivo, Amaranthus rudis
From the text: as §1, §2

barnyardgrass [3] = assay: Test B flooded paddy test; format: in vivo, Echinochloa crus-galli; conditions: Flood, 250 g ai/ha, 0 to 100 scale where 0 is no effect and 100 is complete control
Method in brief: as §4

barnyardgrass [4] = assay: Test A postemergence; format: in vivo, Echinochloa crus-galli
Method in brief: as §3

Heteranthera limosa = assay: Test B flooded paddy test; format: in vivo; conditions: Flood, 250 g ai/ha, 0 to 100 scale where 0 is no effect and 100 is complete control
Method in brief: as §4

lambsquarters = assay: Test C postemergence; format: in vivo, Chenopodium album
From the text: as §1, §2

pigweed = assay: Test C postemergence; format: in vivo, Amaranthus retroflexus
Method in brief: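 Seeds were sown in loam–sand blend and sprayed preemergence, while plants at 1- to 4-leaf stage (2–18 cm) in peat-based medium received postemergence sprays; test chemicals were formulated in a non-phytotoxic solvent with surfactant. After 13–15 days in a greenhouse, injury was rated visually against controls, 0 (no effect) to 100 (complete control).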

galium = assay: Test C postemergence; format: in vivo, Galium aparine
From the text: as §1, §2

[5] = Postemergence, 31 g ai/ha, scale 0 to 100 (0 no effect, 100 complete control), 13 to 15 days
[6] = Postemergence, 62 g ai/ha, scale 0 to 100 (0 no effect, 100 complete control)
[7] = 125 g ai/ha, 0 to 100 scale where 0 is no effect and 100 is complete control
[8] = 500 g ai/ha, 0 to 100 scale where 0 is no effect and 100 is complete control
[9] = 16 g ai/ha, postemergence, visual rating, scale 0 to 100 (0 no effect, 100 complete control), 13 to 15 days
[10] = 16 g ai/ha, postemergence, 0 is no effect, 100 is complete control
[11] = 31 g ai/ha, postemergence, visual rating, scale 0 to 100 (0 no effect, 100 complete control), 13 to 15 days
[12] = 125 g ai/ha, postemergence, visual rating, scale 0 to 100 (0 no effect, 100 complete control)

## FC(F)c1cnn(-c2ccccc2Oc2ncc(Cl)cn2)c1 [Compound 80, 5-chloro-2-[2-[4-(difluoromethyl)-1H-pyrazol-1-yl]phenoxy]pyrimidine]
Italian ryegrass; Lolium multiflorum, post-emergence, 125 g ai/ha, postemergence, read-out: Plant response rating (0 to 100), Ryegrass, Italian
  pest or weed control at 125 g/ha: 5%
Italian ryegrass; Lolium multiflorum, post-emergence, Postemergence, 31 g ai/ha, scale 0 to 100 (0 no effect, 100 complete control), 13 to 15 days, read-out: Plant response rating, Ryegrass, Italian
  pest or weed control at 31 g/ha: 0%
Italian ryegrass; Lolium multiflorum, post-emergence, Postemergence, 62 g ai/ha, scale 0 to 100 (0 no effect, 100 complete control), read-out: Plant response rating, Ryegrass, Italian
  pest or weed control at 62 g/ha: 20%
Corn [1]; Zea mays, post-emergence, 240 h, 125 g ai/ha, 0 to 100 scale where 0 is no effect and 100 is complete control
  Corn plant response rating (crop injury, 0 = no effect, 100 = complete kill) at 125 g/ha: 70%
Corn [1]; Zea mays, post-emergence, 240 h, 500 g ai/ha, 0 to 100 scale, 0 no effect, 100 complete control, read-out: Plant response rating Corn
  plant injury at 500 g/ha: 10%
Corn [2]; Zea mays, post-emergence, 16 g ai/ha, postemergence, visual rating, scale 0 to 100 (0 no effect, 100 complete control), 13 to 15 days, read-out: Corn plant response rating
  plant injury at 16 g/ha: 0%
Corn [2]; Zea mays, post-emergence, 125 g ai/ha, postemergence, read-out: Plant response rating (0 to 100), Corn
  plant injury at 125 g/ha: 5%
Corn [2]; Zea mays, post-emergence, Postemergence, 31 g ai/ha, scale 0 to 100 (0 no effect, 100 complete control), 13 to 15 days
  Corn plant response rating (crop injury, 0 = no effect, 100 = complete kill) at 31 g/ha: 0%
Corn [2]; Zea mays, post-emergence, Postemergence, 62 g ai/ha, scale 0 to 100 (0 no effect, 100 complete control)
  Corn plant response rating (crop injury, 0 = no effect, 100 = complete kill) at 62 g/ha: 5%
rice; Oryza sativa, read-out: Plant response rating, Rice
  plant injury at 250 g/ha: 0%
waterhemp; Amaranthus tuberculatus, post-emergence, 125 g ai/ha, postemergence, read-out: Plant response rating (0 to 100), Waterhemp
  pest or weed control at 125 g/ha: 90%
waterhemp; Amaranthus tuberculatus, post-emergence, Postemergence, 31 g ai/ha, scale 0 to 100 (0 no effect, 100 complete control), 13 to 15 days, read-out: Plant response rating, Waterhemp
  pest or weed control at 31 g/ha: 65%
waterhemp; Amaranthus tuberculatus, post-emergence, Postemergence, 62 g ai/ha, scale 0 to 100 (0 no effect, 100 complete control), read-out: Plant response rating, Waterhemp
  pest or weed control at 62 g/ha: 70%
Barnyardgrass [3]; Echinochloa crus-galli, read-out: Plant response rating, Barnyardgrass
  pest or weed control at 250 g/ha: 0%
Barnyardgrass [4]; Echinochloa crus-galli, post-emergence, 240 h, 125 g ai/ha, 0 to 100 scale where 0 is no effect and 100 is complete control, read-out: Plant response rating, Barnyardgrass
  pest or weed control at 125 g/ha: 70%
Barnyardgrass [4]; Echinochloa crus-galli, post-emergence, 240 h, 500 g ai/ha, 0 to 100 scale, 0 no effect, 100 complete control, read-out: Plant response rating Barnyardgrass
  pest or weed control at 500 g/ha: 100%
Heteranthera limosa; Heteranthera limosa, read-out: Plant response rating, Ducksalad
  pest or weed control at 250 g/ha: 100%
lambsquarters; Chenopodium album, post-emergence, 125 g ai/ha, postemergence, read-out: Plant response rating (0 to 100), Lambsquarters
  pest or weed control at 125 g/ha: 55%
lambsquarters; Chenopodium album, post-emergence, Postemergence, 31 g ai/ha, scale 0 to 100 (0 no effect, 100 complete control), 13 to 15 days, read-out: Plant response rating, Lambsquarters
  pest or weed control at 31 g/ha: 60%
lambsquarters; Chenopodium album, post-emergence, Postemergence, 62 g ai/ha, scale 0 to 100 (0 no effect, 100 complete control), read-out: Plant response rating, Lambsquarters
  pest or weed control at 62 g/ha: 55%
pigweed; Amaranthus retroflexus, post-emergence, 125 g ai/ha, postemergence, read-out: Plant response rating (0 to 100), Pigweed
  pest or weed control at 125 g/ha: 75%
pigweed; Amaranthus retroflexus, post-emergence, Postemergence, 31 g ai/ha, scale 0 to 100 (0 no effect, 100 complete control), 13 to 15 days, read-out: Plant response rating, Pigweed
  pest or weed control at 31 g/ha: 60%
pigweed; Amaranthus retroflexus, post-emergence, Postemergence, 62 g ai/ha, scale 0 to 100 (0 no effect, 100 complete control), read-out: Plant response rating, Pigweed
  pest or weed control at 62 g/ha: 65%
galium; Galium, post-emergence, 16 g ai/ha, postemergence, visual rating, scale 0 to 100 (0 no effect, 100 complete control), 13 to 15 days, read-out: Galium plant response rating
  pest or weed control at 16 g/ha: 55%
galium; Galium, post-emergence, 125 g ai/ha, postemergence, read-out: Plant response rating (0 to 100), Galium
  pest or weed control at 125 g/ha: 95%
galium; Galium, post-emergence, Postemergence, 31 g ai/ha, scale 0 to 100 (0 no effect, 100 complete control), 13 to 15 days, read-out: Plant response rating, Galium
  pest or weed control at 31 g/ha: 70%
galium; Galium, post-emergence, Postemergence, 62 g ai/ha, scale 0 to 100 (0 no effect, 100 complete control), read-out: Plant response rating, Galium
  pest or weed control at 62 g/ha: 85%

## FC(F)Oc1cnn(-c2ccccc2Oc2ncc(Cl)cn2)c1 [Compound 98]
Italian ryegrass; 125 g ai/ha, postemergence
  Plant response rating (0 to 100), Ryegrass, Italian: 25
Italian ryegrass; [5]
  Plant response rating, Ryegrass, Italian: 0
Italian ryegrass; [6]
  Plant response rating, Ryegrass, Italian: 5
Corn [1]; [7]
  Plant response rating, Corn: 40
Corn [1]; [8]
  Plant response rating, Corn: 70
Corn [2]; [9]
  Corn plant response rating: 5
Corn [2]; 125 g ai/ha, postemergence
  Plant response rating (0 to 100), Corn: 20
Corn [2]; [5]
  Plant response rating, Corn: 10
Corn [2]; [6]
  Plant response rating, Corn: 5
rice
  Plant response rating, Rice: 15
waterhemp; 125 g ai/ha, postemergence
  Plant response rating (0 to 100), Waterhemp: 85
waterhemp; [5]
  Plant response rating, Waterhemp: 50
waterhemp; [6]
  Plant response rating, Waterhemp: 80
Barnyardgrass [3]
  Plant response rating, Barnyardgrass: 35
Barnyardgrass [4]; [7]
  Plant response rating, Barnyardgrass: 80
Barnyardgrass [4]; [8]
  Plant response rating, Barnyardgrass: 90
Heteranthera limosa
  Plant response rating, Ducksalad: 85
lambsquarters; 125 g ai/ha, postemergence
  Plant response rating (0 to 100), Lambsquarters: 98
lambsquarters; [5]
  Plant response rating, Lambsquarters: 35
lambsquarters; [6]
  Plant response rating, Lambsquarters: 80
pigweed; 125 g ai/ha, postemergence
  Plant response rating (0 to 100), Pigweed: 75
pigweed; [5]
  Plant response rating, Pigweed: 75
pigweed; [6]
  Plant response rating, Pigweed: 75
galium; [9]
  Galium plant response rating: 50
galium; 125 g ai/ha, postemergence
  Plant response rating (0 to 100), Galium: 80
galium; [5]
  Plant response rating, Galium: 60
galium; [6]
  Plant response rating, Galium: 75

## FC(F)c1cccc(Oc2ncc(Br)cn2)c1-n1cc(C(F)(F)F)cn1 [Compound 163]
Italian ryegrass; [10]
  Plant response rating (0 to 100), Ryegrass, Italian: 0
Italian ryegrass; [11]
  Ryegrass, Italian plant response rating: 0
Italian ryegrass; [12]
  Plant response rating, Ryegrass, Italian: 10
Italian ryegrass; [6]
  Plant response rating, Ryegrass, Italian: 0
Corn [1]; [7]
  Corn plant response rating: 30
Corn [1]; [8]
  Plant response rating, Corn: 50
Corn [2]; [10]
  Plant response rating (0 to 100), Corn: 5
Corn [2]; [11]
  Corn plant response rating: 5
Corn [2]; [12]
  Plant response rating, Corn: 10
Corn [2]; [6]
  Plant response rating, Corn: 10
rice
  Plant response rating, Rice: 25
waterhemp; [10]
  Plant response rating (0 to 100), Waterhemp: 75
waterhemp; [11]
  Waterhemp plant response rating: 75
waterhemp; [12]
  Plant response rating, Waterhemp: 80
waterhemp; [6]
  Plant response rating, Waterhemp: 85
Barnyardgrass [3]
  Plant response rating, Barnyardgrass: 0
Barnyardgrass [4]; [7]
  Barnyardgrass plant response rating: 30
Barnyardgrass [4]; [8]
  Plant response rating, Barnyardgrass: 100
Heteranthera limosa
  Plant response rating, Ducksalad: 90
lambsquarters; [10]
  Plant response rating (0 to 100), Lambsquarters: 60
lambsquarters; [11]
  Lambsquarters plant response rating: 80
lambsquarters; [12]
  Plant response rating, Lambsquarters: 95
lambsquarters; [6]
  Plant response rating, Lambsquarters: 85
pigweed; [10]
  Plant response rating (0 to 100), Pigweed: 80
pigweed; [11]
  Pigweed plant response rating: 85
pigweed; [12]
  Plant response rating, Pigweed: 90
pigweed; [6]
  Plant response rating, Pigweed: 90
galium; [10]
  Plant response rating (0 to 100), Galium: 70
galium; [11]
  Galium plant response rating: 50
galium; [12]
  Plant response rating, Galium: 95
galium; [6]
  Plant response rating, Galium: 85
